This is an account of results in patent US5462941A, “3,6-disubstituted pyradazine derivatives” (Mitsubishi Chemical Corporation, priority 1991, dated 1995).

The subject of assay [1] is Platelet Agglutination of Rats. The assay is described as follows: Inhibitory effect on collagen-induced platelet agglutination of rats in vitro (platelet rich plasma). It counts as cell-based. The note with it: rat platelet rich plasma, read-out: in vitro Inhibitory ratio (platelet agglutination); for inhibition at 0.3 µM: 3 × 10^-7 M; for inhibition at 0.1 µM: 10^-7 M; for inhibition at 1 µM: 10^-6 M. The method, then:
Inhibitory Effects of 3,6-Disubstituted Pyridazine Derivatives on Platelet Agglutination of Rats […]
Arterial blood of a rat was centrifuged to obtain platelet rich plasma. […] of a medicinal solution was added to 250 μl of the platelet rich plasma, and the mixture was incubated for 2 minutes. Thereafter, 3 μg of collagen (produced by Hormon-Chemie) was added to the mixture as a platelet agglutination inducer, and changes in the platelet agglutination were observed and recorded by a 2-channel platelet agglutination degree measuring instrument (Model DP247E, produced by Sienco) for 10 minutes.
(§1) The platelet agglutination inhibitory ratio was calculated from the following formula:
Inhibitory ratio=(Tc-Ts)/Tc×100
Tc: Agglutination degree when only a solvent was added
Ts: Agglutination degree when a medicinal solution was added

Assay [2] relates to Platelet Agglutination of Rats. The assay is described as follows: Inhibitory effect on collagen-induced platelet agglutination of rats after oral administration (ex vivo). It counts as in vivo, rat (male Wistar-ST). Conditions: 1 mg/kg p.o., blood collected one hour after; collagen 7 to 10 μg/ml; rat. The method, then:
Inhibitory Effects of 3,6-Disubstituted Pyridazine Derivatives on Platelet Agglutination of Rats In Vivo (Oral Administration)
A rat group consisting of 8 male Wistar-ST rats each weighing about 250 g was tested. Each compound was suspended in aqueous 1% tragacanth solution. The thus-prepared suspension was orally administered to each rat at a dose of 4 ml/kg. One hour after, blood was collected from each carotid artery through a cannula into a plastic test tube containing 3.8% sodium citrate in amount corresponding to 1/10 of the volume of the test tube) and the mixture was stirred. Thereafter, the mixture was centrifuged at 200×g rpm for 15 minutes, and the supernatant liquid was taken as platelet rich plasma (PRP). The residue was further centrifuged at 2000×g rpm for 15 minutes, and the supernatant liquid was collected as platelet poor plasma (PPP) and used for measurement of the platelet agglutinating ability. The platelet agglutinating ability was measured by a 2-channel platelet agglutination degree measuring instrument (Model DP247E, produced by Sienco), and recorded by a 2-pen recorder.
Collagen (produced by Hormon-Chemie) having a concentration of 7 to 10 μg/ml was used as a platelet agglutination inducer.
as §1
Inhibitory ratio=(A-B)/A×100 (%)
A: Agglutination degree in the group (controlled group) to which only a solution of 1% tragacanth was administered
B: Agglutination degree in the group to which the tragacanth solution containing a compound was administered

Assay [3] relates to Myocardial Infarction of a Rat. Kind of assay: Effect on myocardial infarction of a rat induced by ligation of the left coronary artery. It is filed as in vivo, rat (male SD). The note with it: oral, 60 minutes before ligation. The method, then:
Effects of 3,6-Disubstituted Pyridazine Derivatives on the Myocardial Infarction of a Rat Induced by the Ligation of the Left Coronary Artery
A rat group consisting of 8 male SD rats each weighing 200 to 250 g was tested. Myocardial infarction was produced in accordance with a method of Selye et al. That is, each rat was fixed on an operating boar on its back, and an about 1.5 cm incision had been made through the skin along the left sternal border under weak etherization. The pericardium was broken to exteriorize the heart, and the left coronary artery was ligated at a position of 1 to 2 mm apart from the origin thereof with black blade 4-O silk suture (produced by Hama Ika Kogyo). Thereafter, the heart was restored to its original position and the chest was sutured. The air in the throacic cavity was discharged by pressing both side breast portions. After the resumption of respiration, the ST elevation in the standard limb lead II by an electrocardiograph (Model ECG-6601, produced by Nihon Koden Co.,). 24 hours after the ligation, blood was collected from the aortas at the abdomen. A fatal amount of blood was then drawn from each rat. The heart was taken out, and a tissue slice (about 2 mm thick) having an annular cross section was cut from the central portion of the heart. The tissue slice was incubated in 20 ml of 1% TTC (tryphenyl tetrazolium chloride, produced by Wako Pure Chemical Industries Limited) dissolved in 0.09M of phosphoric acid buffer (pH 8.6) at 37° C. for 20 minutes while shielding light. The tissue slice was photographed by a stereoscopic microscope to produce a color slide. The image of the tissue slice was projected on a wall surface from the color slide. The cut surface, the infarcted portion (portion not dyed with TTC) and the non-infarcted portion (portion dyed with TTC) were traced on a sheet, and the area of the infarcted portion in the whole cross section was calculated. The medicine was suspended in an aqueous 1% tragacanth solution and orally administered to each rat 60 minutes before the ligation of the left coronary artery.
The myocardial infarction inhibitory ratio was calculated from the following formula: [formula] A: Infarction degree in the group (controlled group) to which only a solution of 1% tragacanth was administered
B: Infarction degree in the group to which the tragacanth solution containing a medicine was administered

With `C[C@@H](Nc1nnc(-c2cccs2)c2sccc12)c1ccccc1` [Example 69, (R)-4-(1-phenylethylamino)-7-(2-thienyl) thieno[2 3-d]pyridazine], in assay [1], the inhibition at 0.3 µM is 95.2% and the inhibition at 0.1 µM stood at 50.8%.
In the case of `CCC(Nc1nnc(C2CCCCC2)c2ccccc12)c1ccccc1` (centres unmarked) [Example 2], in assay [1], the inhibition at 0.3 µM was 96% and the inhibition at 0.1 µM stood at 56%.
Regarding `C[C@@H](Nc1nnc(-c2ccccc2)c2sccc12)C1CCCCC1` [Example 75], the “ex vivo Inhibitory ratio (platelet agglutination)” value (shortened to “ex vivo Inhibitory ratio”) in assay [2] was 50.2%. Moreover, the inhibition at 0.1 µM in assay [1] is 94.5%.
As for `CC(=O)Oc1ccccc1C(=O)O` [Aspirin, reference compound], the “percentage of inhibition (myocardial infarction)” value (“percentage of inhibition” below) in assay [3] (100 mg/kg) is given as 10.7 percentage.
On to `c1ccc(-c2nnc(NC3CCCCC3)c3ccsc23)cc1` [Example 80], for which the inhibition at 0.1 µM in assay [1] came out at 100%.
For `C[C@H](Nc1nnc(-c2ccccc2)c2ccsc12)c1ccccc1` [Example 83], in assay [1], the inhibition at 0.3 µM was found to be 94.3%.
On to `Cc1ccccc1-c1nnc(N[C@H](C)c2ccccc2)c2ccsc12` [Example 79], for which, in assay [1], the inhibition at 0.3 µM came to 6.6% and the inhibition at 1 µM turned out to be 94.3%.
The like results for `COc1ccccc1C(C)Nc1nnc(-c2ccccc2)c2ccsc12` (centres unmarked) [Example 89] were, in that order, 49.5% and 95.4%.
Turning to `C[C@@H](Nc1nnc(-c2ccccc2)c2ccsc12)c1ccccc1` [Example 82], in assay [2], the “ex vivo Inhibitory ratio” value worked out at 37.9%. In addition, the inhibition at 0.1 µM in assay [1] is 93.3%.
As to `Clc1ccccc1CN1CCc2sccc2C1` [Ticlopidine, reference compound], the “percentage of inhibition” value in assay [3] (30 mg/kg) was 10.1 percentage.
As for `C[C@@H](Nc1nnc(-c2ccccc2)c2sccc12)c1ccccc1` [Example 70], the inhibition at 0.1 µM in assay [1] was 95.2%.
For the compound `CCCCC(Nc1nnc(-c2ccccc2)c2ccsc12)c1ccccc1` (centres unmarked) [Example 85], the inhibition at 1 µM in assay [1] was found to be 40.7%.
Take `COc1ccccc1C(C)Nc1nnc(-c2ccccc2)c2sccc12` (centres unmarked) [Example 74]: in assay [1], the inhibition at 0.3 µM stood at 93.5% and the inhibition at 0.1 µM was found to be 73.4%.
As for `Cc1cccc(C(C)Nc2nnc(-c3ccccc3)c3ccsc23)c1` (centres unmarked) [Example 87], the inhibition at 1 µM in assay [1] is 18%.
`C[C@@H](Nc1nnc(-c2ccccc2)c2ccccc12)C1CCCCC1` [Example 60, (R)-1-(1-cyclohexylethylamino)-4-phenylphthalazine]: the “ex vivo Inhibitory ratio” value in assay [2] stood at 51.3%. Moreover, in assay [1], the inhibition at 0.1 µM stood at 94.3%. Moreover, the “percentage of inhibition” value in assay [3] (1 mg/kg) is on record as 68.5 percentage; in assay [3] (3 mg/kg), 82.2 percentage.
As for `Cc1cccc(C(C)Nc2nnc(-c3ccccc3)c3sccc23)c1` (centres unmarked) [Example 73], in assay [1], the inhibition at 0.3 µM is 95.6% and the inhibition at 0.1 µM is 42.8%.
Turning to `c1ccc2c(C3CCCCC3)nnc(NC3CCCCC3)c2c1` [Example 3], in assay [1], the inhibition at 0.3 µM stood at 18.4% and the inhibition at 1 µM came to 100%.
The like results for `c1coc(-c2nnc(-n3ccnc3)c3ccccc23)c1` [Example 46, 1-(1-imidazolyl)-4-(2-furyl)phthalazine] were, in that order, 40.6% and 66.5%.
As to `CC(Nc1nnc(-c2ccccc2)c2sccc12)c1ccccc1Cl` (centres unmarked) [Example 72], in assay [1], the inhibition at 0.3 µM was determined as 95.3% and the inhibition at 0.1 µM stood at 5.1%.
Consider `CC(Nc1nnc(-c2ccccc2)c2ccsc12)c1ccccc1Cl` (centres unmarked) [Example 86], for which, in assay [1], the inhibition at 0.3 µM came to 78.2% and the inhibition at 1 µM worked out at 90.2%.
For `CC1(C)CC(Nc2nnc(C3CCCCC3)c3ccccc23)CC(C)(C)C1` [Example 5], in assay [1], the inhibition at 1 µM amounted to 51.8%.
Turning to `C[C@@H](Nc1nnc(C2CCCCC2)c2ccccc12)c1ccccc1` [Example 1, (R)-1-(α-phenylethylamino)-4-cyclohexylphthalazine], in assay [1], the inhibition at 0.3 µM was 97.1% and the inhibition at 0.1 µM was found to be 89.2%.
The like results for `CCC(Nc1nnc(-c2ccccc2)c2sccc12)c1ccccc1` (centres unmarked) [Example 71] were, in that order, 98.6% and 30.7%.
As for `C[C@@H](Nc1nnc(-c2ccccc2)c2occc12)C1CCCCC1` [Example 95, (R)-4-(1-cyclohexylethylamino)-7-phenyl-furano[2,3-d]pyridazine], the “ex vivo Inhibitory ratio” value in assay [2] is on record as 63.1%. In addition, in assay [1], the inhibition at 0.3 µM is 100% and the inhibition at 0.1 µM was determined as 94.4%.
For `C[C@@H](Nc1nnc(-c2ccsc2)c2ccccc12)c1ccccc1` [Example 39, (R)-1-(α-phenylethylamino)-4-(3-thienyl) phthalazine], the inhibition at 0.1 µM in assay [1] is 94.9%.
As to `CCC(Nc1nnc(-c2ccccc2)c2ccsc12)c1ccccc1` (centres unmarked) [Example 84], in assay [1], the inhibition at 0.3 µM is 24.5% and the inhibition at 1 µM worked out at 61.6%.
Take `C[C@@H](Nc1nnc(-c2ccco2)c2ccccc12)C1CCCCC1` [Example 45, (R)-1-(α-cyclohexylethylamino)-4-(2-furyl)phthalazine]: the inhibition at 0.1 µM in assay [1] came out at 98.6%.
Turning to `C[C@@H](Nc1nnc(-c2ccccc2)c2ccsc12)C1CCCCC1` [Example 90], the “ex vivo Inhibitory ratio” value in assay [2] was determined as 60.6%. Besides, in assay [1], the inhibition at 0.3 µM amounted to 94.4% and the inhibition at 0.1 µM worked out at 32.7%.
With `Cc1csc(-c2nnc(N[C@H](C)c3ccccc3)c3ccccc23)c1` [Example 42, (R)-1-(α-phenylethylamino)-4-(4-methyl-2-thienyl)phthalazine], the inhibition at 0.1 µM in assay [1] turned out to be 96.3%.
Consider `C[C@H](Nc1nnc(-c2ccccc2)c2ccccc12)C1CCCCC1` [Example 61], for which, in assay [1], the inhibition at 0.3 µM was 94.4% and the inhibition at 0.1 µM was found to be 30.2%.
